Measurements: patent US20180057505A1, “BICYCLIC HETEROARYL COMPOUNDS USEFUL AS INHIBITORS OF THE PAR-2 SIGNALING PATHWAY” (VERTEX PHARMACEUTICALS INCORPORATED, priority 2015, published 2018)
pIC50: −log10 of the molar value.

Columns and labels:
Assay type in all cases: cell-based
[1] = molecular target: T1, PAR2 (HT-29 cells) (Homo sapiens, UniProt P55085); assay: Ca FLIPR TETRA assay, ANTAGONIST mode, activator 8 μM SLIGKV; conditions: HT-29 cells, activator 8 μM SLIGKV
T1 construct: host or cells: HT-29
T1 sequence (P55085 26-397): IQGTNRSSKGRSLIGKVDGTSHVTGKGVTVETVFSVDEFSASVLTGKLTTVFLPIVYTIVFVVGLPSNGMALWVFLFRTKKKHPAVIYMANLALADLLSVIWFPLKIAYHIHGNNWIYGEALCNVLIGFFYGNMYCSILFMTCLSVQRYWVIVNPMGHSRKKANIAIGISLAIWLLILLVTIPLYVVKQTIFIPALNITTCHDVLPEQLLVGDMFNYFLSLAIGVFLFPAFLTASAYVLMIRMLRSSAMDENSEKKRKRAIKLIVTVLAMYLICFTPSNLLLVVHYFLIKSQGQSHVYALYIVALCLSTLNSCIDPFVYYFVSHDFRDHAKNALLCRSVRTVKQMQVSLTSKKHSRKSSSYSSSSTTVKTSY
Procedure, shortened: (§1)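 Compounds are added to calcium 5-loaded HT-29 cells, read once for intrinsic Ca2+ activation, then incubated 30 min at room temperature. The same wells are then stimulated with a fixed final activator level and the Ca2+ response recorded on FLIPR Tetra.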

[2] = molecular target: T1, PAR2 (HT-29 cells); assay: Ca FLIPR TETRA assay, ANTAGONIST mode, activator 3.1 U/mL trypsin; conditions: HT-29 cells, activator 3.1 U/mL trypsin
Procedure, shortened: as §1

[3] = system: Thrombin-stimulated Ca2+ response in HT-29 cells; assay: Ca FLIPR TETRA assay, ANTAGONIST mode, activator 1 U/mL Thrombin; conditions: Homo sapiens; HT-29 cells, activator 1 U/mL Thrombin
Procedure, shortened: as §1

[4] = system: UTP-stimulated Ca2+ response in HT-29 cells; assay: Ca FLIPR TETRA assay, ANTAGONIST mode, activator 0.6 μM UTP; conditions: Homo sapiens; HT-29 cells, activator 0.6 μM UTP
Procedure, shortened: as §1

[5] = maximal antagonist concentration per Method (A: 0.1, 1 or 2 μM; B: 50 μM)
[6] = Method A: maximal concentration of antagonist 0.1, 1 or 2 μM

Cc1cc(-c2cc(C(C)(C)C)c3oc(C(=O)N4CCN(c5cn[nH]c5)C(=O)C4(C)C)cc3n2)ccc1Cl [Example I-275, 4-[7-tert-butyl-5-(4-chloro-3-methyl-phenyl)furo[3,2-b]pyridine-2-carbonyl]-3,3-dimethyl-1-(1H-pyrazol-4-yl)piperazin-2-one]
pIC50 [1, 5]: 7.80
pIC50 [2, 5]: 7.70
pIC50 [3]: < 5.70
pIC50 [4]: < 5.70

Cc1ccnc(N2CCN(C(=O)c3cc4nc(-c5ccc(Cl)c(F)c5)cc(C(C)(C)C)c4o3)C(C)(C)C2=O)n1 [Example I-276]
pIC50 [1, 5]: 8.92
pIC50 [2, 5]: 8.74
pIC50 [3]: < 5.70
pIC50 [4]: < 5.70

CC(C)(C)c1cc(-c2ccc(Cl)c(F)c2)nc2cc(C(=O)N3CCN(c4cc(C(=O)O)n[nH]4)C(=O)C3(C)C)oc12 [Example I-280, 5-[4-[7-tert-butyl-5-(4-chloro-3-fluoro-phenyl)furo[3,2-b]pyridine-2-carbonyl]-3,3-dimethyl-2-oxo-piperazin-1-yl]-1H-pyrazole-3-carboxylic acid]
pIC50 [1, 5]: 7.44
pIC50 [2, 5]: 7.28
pIC50 [3]: < 5.70
pIC50 [4]: < 5.70

CC1(C)CCC(c2cc(C(C)(C)C)c3oc(C(=O)N4CCN(c5ccc(C(=O)O)cn5)C(=O)C4(C)C)cc3n2)CC1 [Example I-281, 6-[4-[7-tert-butyl-5-(4,4-dimethylcyclohexyl)furo[3,2-b]pyridine-2-carbonyl]-3,3-dimethyl-2-oxo-piperazin-1-yl]pyridine-3-carboxylic acid]
pIC50 [1, 5]: 8.44
pIC50 [2, 5]: 8.13
pIC50 [3]: 5.76
pIC50 [4]: < 5.70

CC(C)(C)c1cc(-c2ccc(Cl)cc2)nc2cc(C(=O)N3CCN(c4ccc(C(=O)O)cn4)C(=O)C3(C)C)oc12 [Example I-282, 6-[4-[7-tert-butyl-5-(4-chlorophenyl)furo[3,2-b]pyridine-2-carbonyl]-3,3-dimethyl-2-oxo-piperazin-1-yl]pyridine-3-carboxylic acid]
pIC50 [1, 5]: 8.12
pIC50 [2, 5]: 8.08
pIC50 [3]: 5.80
pIC50 [4]: 5.74

CC1(C)CCC(c2cc(C(C)(C)C)c3oc(C(=O)N4CCN(c5ccn[nH]5)C(=O)C4(C)C)cc3n2)CC1 [Example I-283, 4-[7-tert-butyl-5-(4,4-dimethylcyclohexyl)furo[3,2-b]pyridine-2-carbonyl]-3,3-dimethyl-1-(1H-pyrazol-5-yl)piperazin-2-one]
pIC50 [1, 5]: 7.74
pIC50 [2, 5]: 7.21
pIC50 [3]: < 5.70
pIC50 [4]: < 5.70

Cc1cc(N2CCN(C(=O)c3cc4nc(-c5ccc(Cl)c(F)c5)cc(C(C)(C)C)c4o3)C(C)(C)C2=O)[nH]n1 [Example I-284, 4-[7-tert-butyl-5-(4-chloro-3-fluoro-phenyl)furo[3,2-b]pyridine-2-carbonyl]-3,3-dimethyl-1-(3-methyl-1H-pyrazol-5-yl)piperazin-2-one]
pIC50 [1, 5]: 7.89
pIC50 [2, 5]: 7.84
pIC50 [3]: < 5.70
pIC50 [4]: < 5.70

Cc1cc(N2CCN(C(=O)c3cc4nc(-c5ccc(Cl)cc5)cc(C(C)(C)C)c4o3)C(C)(C)C2=O)[nH]n1 [Example I-285, 4-[7-tert-butyl-5-(4-chlorophenyl)furo[3,2-b]pyridine-2-carbonyl]-3,3-dimethyl-1-(3-methyl-1H-pyrazol-5-yl)piperazin-2-one]
pIC50 [1, 5]: 7.55
pIC50 [2, 5]: 7.63
pIC50 [3]: < 5.70
pIC50 [4]: < 5.70

CC(C)(C)c1cc(-c2ccc(Cl)c(F)c2)nc2cc(C(=O)N3CCN(c4cc(C(=O)O)ccn4)CC3(C)C)oc12 [Example I-286]
pIC50 [1, 5]: 8.85
pIC50 [2, 5]: 8.59
pIC50 [3]: < 5.70
pIC50 [4]: < 5.70

CC(C)(C)c1cc(-c2ccc(Cl)c(F)c2)nc2cc(C(=O)N3CCN(c4ccc(C(=O)O)cn4)CC3(C)C)oc12 [Example I-287]
pIC50 [1, 5]: 9.52
pIC50 [2, 5]: 9.30
pIC50 [3]: 5.74
pIC50 [4]: 5.79

CC(C)(C)c1cc(-c2ccc(Cl)c(F)c2)nc2cc(C(=O)N3CCN(c4nc(C(=O)O)co4)CC3(C)C)oc12 [Example I-289]
pIC50 [1, 5]: 10.00
pIC50 [2, 5]: 9.52
pIC50 [3]: < 5.70
pIC50 [4]: < 5.70

Cn1cc(C(=O)O)c(C(=O)N2CCN(C(=O)c3cc4nc(C5CC6(CCC6)C5)cc(C(C)(C)C)c4o3)C(C)(C)C2)n1 [Example I-291]
pIC50 [1, 5]: 9.15
pIC50 [2, 5]: 8.96
pIC50 [3]: < 5.70
pIC50 [4]: < 5.70

CC(C)(C)c1cc(C2CC3(CCC3)C2)nc2cc(C(=O)N3CCN(C(=O)CCC(=O)O)CC3(C)C)oc12 [Example I-292]
pIC50 [1, 5]: 8.46
pIC50 [2, 5]: 8.15
pIC50 [3]: < 5.70
pIC50 [4]: < 5.70

CCS(=O)(=O)NCC(=O)N1CCN(C(=O)c2cc3nc(C4CC5(CCC5)C4)cc(C(C)(C)C)c3o2)C(C)(C)C1 [Example I-293]
pIC50 [1, 5]: 8.27
pIC50 [2, 5]: 8.17
pIC50 [3]: < 5.70
pIC50 [4]: < 5.70

Cc1cc(C(=O)N2CCN(C(=O)c3cc4nc(C5CC6(CCC6)C5)cc(C(C)(C)C)c4o3)C(C)(C)C2)[nH]n1 [Example I-294]
pIC50 [1, 5]: 8.82
pIC50 [2, 5]: 8.44
pIC50 [3]: < 5.70
pIC50 [4]: < 5.70

Cc1n[nH]c(C(=O)N2CCN(C(=O)c3cc4nc(C5CC6(CCC6)C5)cc(C(C)(C)C)c4o3)C(C)(C)C2)n1 [Example I-295]
pIC50 [1, 5]: 8.14
pIC50 [2, 5]: 7.66
pIC50 [3]: < 5.70
pIC50 [4]: < 5.70

CC(C)(C)c1cc(C2CC3(CCC3)C2)nc2cc(C(=O)N3CCN(C(=O)[C@H]4C[C@@](C)(O)C4)CC3(C)C)oc12 [Example I-296]
pIC50 [1, 5]: 9.15
pIC50 [2, 5]: 9.15
pIC50 [3]: < 5.70
pIC50 [4]: < 5.70

CC(C)(C)c1cc(C2CC3(CCC3)C2)nc2cc(C(=O)N3CCN(C(=O)[C@H]4CC[C@@](C)(C(=O)O)CC4)CC3(C)C)oc12 [Example I-297]
pIC50 [1, 5]: 9.70
pIC50 [2, 5]: 9.70
pIC50 [3]: 5.85
pIC50 [4]: 5.92

CC(C)(C)c1cc(C2CC3(CCC3)C2)nc2cc(C(=O)N3CCN(C(=O)[C@H]4CC[C@](C)(C(=O)O)CC4)CC3(C)C)oc12 [Example I-298]
pIC50 [1, 6]: 7.85
pIC50 [2, 6]: 7.74
pIC50 [3]: 6.29
pIC50 [4]: 6.29

CC(C)(C)c1cc(-c2ccc(Cl)c(F)c2)nc2cc(C(=O)N3CCC(CC(=O)O)CC3(C)C)oc12 (stereo not shown) [Example I-299]
pIC50 [1, 6]: 9.70
pIC50 [2, 6]: 9.70
pIC50 [3]: < 5.70
pIC50 [4]: 5.77

CC1(C)CN(C(=O)[C@H]2C[C@@](C)(O)C2)CCN1C(=O)c1cc2nc(-c3ccc(Cl)c(F)c3)cc(C3(C#N)CC(F)(F)C3)c2o1 [Example I-300]
pIC50 [1, 6]: 8.80
pIC50 [2, 6]: 8.80
pIC50 [3]: < 5.70
pIC50 [4]: < 5.70

CCC(CC)c1cc(-c2ccc(F)cc2)nc2cc(C(=O)N3CCN(c4cn[nH]c4)C(=O)C3(C)C)oc12 [Example I-301]
pIC50 [1, 6]: 8.52
pIC50 [2, 6]: 8.40
pIC50 [3]: < 5.70
pIC50 [4]: < 5.70

CCC(CC)c1cc(-c2ccc(F)cc2)nc2cc(C(=O)N3CCN(C#N)C(=O)C3(C)C)oc12 [Example I-302]
pIC50 [1, 6]: 7.85
pIC50 [2, 6]: 7.71
pIC50 [3]: < 5.70
pIC50 [4]: < 5.70

CC(C)(C)c1cc(C2CCC(Cl)(Cl)CC2)nc2cc(C(=O)N3CCN(C(=O)[C@H]4CC[C@@](C)(C(=O)O)CC4)CC3(C)C)oc12 [Example I-303]
pIC50 [1, 6]: 9.40
pIC50 [2, 6]: 9.22
pIC50 [3]: 5.89
pIC50 [4]: 5.74

Cc1n[nH]c(C(=O)N2CCN(C(=O)c3cc4nc(C5CCC(Cl)(Cl)CC5)cc(C(C)(C)C)c4o3)C(C)(C)C2)n1 [Example I-304]
pIC50 [1, 6]: 8.70
pIC50 [2, 6]: 8.55
pIC50 [3]: < 5.70
pIC50 [4]: < 5.70
